Experimental data: article PMC4281096 (Journal of Medicinal Chemistry, 2014)

Experiments:
[1] = ref [24], cited from earlier work; for isomerization after 6 days: acetonitrile/water solution
[2] = test system: SJSA-1 osteosarcoma tumor cell line
[3] = 17D 200 mg/kg or 31 100 mg/kg, daily oral 14 days
[4] = target: recombinant human His-tagged MDM2 protein (residues 1–118) (Homo sapiens, UniProt Q00987); details: in words
[5] = test system: SJSA-1 osteosarcoma xenografts; details: 100 mg/kg, orally daily for 14 days
[6] = test system: p53 activation and apoptosis in SJSA-1 tumor tissue; details: mouse, in vivo, po, 100 mg/kg

Sequence of recombinant human His-tagged MDM2 protein (residues 1–118) (Q00987 1-118): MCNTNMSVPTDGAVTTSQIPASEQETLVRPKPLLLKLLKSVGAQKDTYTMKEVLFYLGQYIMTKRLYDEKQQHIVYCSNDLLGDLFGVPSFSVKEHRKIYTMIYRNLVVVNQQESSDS

SMILES: CC(C)(C)C[C@@H]1N[C@@H](C(=O)N[C@H]2C[C@@](C)(O)C2)[C@H](c2cccc(Cl)c2F)[C@]12C(=O)Nc1cc(Cl)ccc12 [Compound 3]
- % composition of compound in 1:1 CH3CN/H2O, 0 h ([1]; 0 h): 100%
- isomerization after 6 days [1]: 2.3%

SMILES: CC1(C)N[C@@H](C(=O)N[C@H]2CC[C@H](O)CC2)[C@H](c2cccc(Cl)c2F)[C@]12C(=O)Nc1cc(Cl)ccc12 [Compound 12D, (3R,4′S,5′R)-6-Chloro-4′-(3-chloro-2-fluorophenyl)-N-((1R,4R)-4-hydroxycyclohexyl)-2′,2′-dimethyl-2-oxospiro[indoline-3,3′-pyrrolidine]-5′-carboxamide]
- IC50 values in inhibition of cell growth [2]: low micromolar range

SMILES: CCCC1(CCC)N[C@@H](C(=O)N[C@H]2CC[C@H](O)CC2)[C@H](c2cccc(Cl)c2F)[C@]12C(=O)Nc1cc(Cl)ccc12 [Compound 14D, (3R,4′S,5′R)-6-Chloro-4′-(3-chloro-2-fluorophenyl)-N-((1r,4R)-4-hydroxycyclohexyl)-2-oxo-2′,2′-di-n-propylspiro[indoline-3,3′-pyrrolidine]-5′-carboxamide]
- IC50 values in inhibition of cell growth [2]: low micromolar range

SMILES: O=C(N[C@H]1CC[C@H](O)CC1)[C@@H]1NC2(CCC2)[C@]2(C(=O)Nc3cc(Cl)ccc32)[C@H]1c1cccc(Cl)c1F [Compound 15C, (3′S,4′S,5′R)-6″-Chloro-4′-(3-chloro-2-fluorophenyl)-N-((1R,4R)-4-hydroxycyclohexyl)-2″-oxodispiro[cyclobutane-1,2′-pyrrolidine-3′,3″-indoline]-5′-carboxamide]
- IC50 values in inhibition of cell growth [2]: low micromolar range

SMILES: O=C(N[C@H]1CC[C@H](O)CC1)[C@@H]1NC2(CCC2)[C@@]2(C(=O)Nc3cc(Cl)ccc32)[C@H]1c1cccc(Cl)c1F [Compound 15D, (3′R,4′S,5′R)-6″-Chloro-4′-(3-chloro-2-fluorophenyl)-N-((1R,4R)-4-hydroxycyclohexyl)-2″-oxodispiro[cyclobutane-1,2′-pyrrolidine-3′,3″-indoline]-5′-carboxamide]
- IC50 values in inhibition of cell growth [2]: low micromolar range

SMILES: O=C(N[C@H]1CC[C@H](O)CC1)[C@@H]1NC2(CCCC2)[C@@]2(C(=O)Nc3cc(Cl)ccc32)[C@H]1c1cccc(Cl)c1F [Compound 16D, (3′R,4′S,5′R)-6″-Chloro-4′-(3-chloro-2-fluorophenyl)-N-((1R,4R)-4-hydroxycyclohexyl)-2″-oxodispiro[cyclopentane-1,2′-pyrrolidine-3′,3″-indoline]-5′-carboxamide]
- IC50 values in inhibition of cell growth [2]: sub-micromolar

SMILES: O=C(N[C@H]1CC[C@H](O)CC1)[C@@H]1NC2(CCCCC2)[C@@]2(C(=O)Nc3cc(Cl)ccc32)[C@H]1c1cccc(Cl)c1F [Compound 17D, (3′R,4′S,5′R)-6″-Chloro-4′-(3-chloro-2-fluorophenyl)-N-((1R,4R)-4-hydroxycyclohexyl)-2″-oxodispiro[cyclohexane-1,2′-pyrrolidine-3′,3″-indoline]-5′-carboxamide]
- signs of toxicity during or after the treatment [3]: did not show any signs of toxicity
- weight loss [3]: no weight loss
- IC50 values in inhibition of cell growth [2]: sub-micromolar

SMILES: N[C@@H](C(=O)N[C@H]1CC[C@H](O)CC1)[C@H](c1cccc(Cl)c1F)C1C(=O)Nc2cc(Cl)ccc21 (stereo partly drawn) [Compound 20]
- binding to MDM2 [4]: does not bind to MDM2

SMILES: O=C(NCCN1CCOCC1)[C@@H]1NC2(CCC2)[C@]2(C(=O)Nc3cc(Cl)ccc32)[C@H]1c1cccc(Cl)c1F [Compound 22C]
- IC50 values in inhibition of cell growth [2]: low micromolar range

SMILES: O=C(NCCN1CCOCC1)[C@@H]1NC2(CCC2)[C@@]2(C(=O)Nc3cc(Cl)ccc32)[C@H]1c1cccc(Cl)c1F [Compound 22D]
- IC50 values in inhibition of cell growth [2]: low micromolar range

SMILES: O=C(NCCN1CCOCC1)[C@@H]1NC2(CCCCC2)[C@@]2(C(=O)Nc3cc(Cl)ccc32)[C@H]1c1cccc(Cl)c1F [Compound 23D]
- IC50 values in inhibition of cell growth [2]: sub-micromolar

SMILES: O=C(NCC[C@H](O)CO)[C@@H]1NC2(CCC2)[C@]2(C(=O)Nc3cc(Cl)ccc32)[C@H]1c1cccc(Cl)c1F [Compound 25C]
- IC50 values in inhibition of cell growth [2]: low micromolar range

SMILES: O=C(NCC[C@H](O)CO)[C@@H]1NC2(CCC2)[C@@]2(C(=O)Nc3cc(Cl)ccc32)[C@H]1c1cccc(Cl)c1F [Compound 25D]
- IC50 values in inhibition of cell growth [2]: low micromolar range

SMILES: O=C(NCC[C@H](O)CO)[C@@H]1NC2(CCCCC2)[C@@]2(C(=O)Nc3cc(Cl)ccc32)[C@H]1c1cccc(Cl)c1F [Compound 26D]
- IC50 values in inhibition of cell growth [2]: sub-micromolar

SMILES: C[C@]1(O)C[C@@H](NC(=O)[C@@H]2NC3(CCC3)[C@]3(C(=O)Nc4cc(Cl)ccc43)[C@H]2c2cccc(Cl)c2F)C1 [Compound 28C]
- IC50 values in inhibition of cell growth [2]: low micromolar range

SMILES: C[C@]1(O)C[C@@H](NC(=O)[C@@H]2NC3(CCCCC3)[C@@]3(C(=O)Nc4cc(Cl)ccc43)[C@H]2c2cccc(Cl)c2F)C1 [Compound 29D]
- IC50 values in inhibition of cell growth [2]: sub-micromolar

SMILES: O=C(O)c1ccc(NC(=O)[C@@H]2NC3(CCCCC3)[C@@]3(C(=O)Nc4cc(Cl)ccc43)[C@H]2c2cccc(Cl)c2F)cc1 [Compound 31, 4-((3′R,4′S,5′R)-6″-Chloro-4′-(3-chloro-2-fluorophenyl)-2″-oxodispiro[cyclohexane-1,2′-pyrrolidine-3′,3″-indoline]-5′-carboxamido)benzoic Acid]
- signs of toxicity during or after the treatment [3]: did not show any signs of toxicity
- weight loss [3]: no weight loss
- mice with no detectable tumor ([5]; day 25, of eight mice): three
- tumor regression ([5]; in words): achieved significant tumor regression
- PARP cleavage (apoptosis induction) in tumor tissue [6]: robust cleavage of PARP
- p53 activation (accumulation of p53, MDM2 and p21 proteins) in tumor tissue [6]: effectively activated p53

SMILES: CC(C)(C)C[C@@H]1N[C@@H](C(=O)NCCN2CCOCC2)[C@H](c2cccc(Cl)c2F)[C@]12C(=O)Nc1cc(Cl)ccc12 [MI-63]
- isomerization after 6 days [1]: 17.3%

SMILES: CC(C)(C)C[C@@H]1N[C@@H](C(=O)NCC[C@H](O)CO)[C@H](c2cccc(Cl)c2F)[C@]12C(=O)Nc1cc(Cl)ccc12 [MI-147]
- isomerization after 6 days [1]: 8.6%
